One data set relates to A2780cis. The data set can be described thus: MTT cell viability assay, cisplatin-resistant A2780cis. The class given is cell-based, human. To be noted: for Fold resistance (A2780cis/A2780): IC50 A2780cis/IC50 A2780. From the text:
Human epithelial ovarian cancer A2780 cell line and its cisplatin-resistant clone A2780cis were obtained from Sigma-Aldrich (Milano, Italy). SKOV3 (HTB-77) cells were from the American Type Culture Collection (ATCC). The two cell lines were selected to reflect the two different stages of OvCa and different sensitivity to cisplatin. A2780 cell lines were derived from the ovarian tumor tissue of an untreated patient, while SKOV3 was from the ascitic fluids (after metastasis). […] Cell lines were cultured in RPMI-1640 medium containing 10% fetal bovine serum (FBS) (Gibco, Thermo Fisher Scientific, U.S.A), 1% (v/v) of penicillin (10,000 units/mL)-streptomycin (10 mg/mL), and 1% (v/v) L-glutamine (200 mM) (all from Sigma- Aldrich) at 37° C. in a 5% CO2 fully humidified atmosphere. […] Cisplatin was included as a reference drug. […] Fold resistance was calculated as the ratio of the IC50 of the A2780cis to that of the parental cell line A2780.

The subject of data set [1] is SKOV3-MCTSs. The data set can be described thus: SKOV3-MCTS spheroid volume. The class given is cell-based, human. To be noted: for SKOV3-MCTS volume decrease with respect to control: 0.5 μM. How it is done:
To generate single spheroids with defined size, 1.0×10^3/mL SKOV3 cells were seeded 4 days under nonadherent conditions in U-bottom 96-well plates coated twice with 20 mg/mL of poly(2-hydroxyethyl methacrylate) (poly-HEMA; Sigma) in 95% ethanol. Spheroid size was measured at days 0, 3, and 7 after drug treatment initiation using an inverted microscope (Eclipse TS/100, Nikon, Tokyo, Japan) with photomicrographic systems DS camera control unit DS-L2. Spheroid volumes were calculated using the formula (width^2×length×3.14)/6.

Data set [2] concerns SKOV3-MCTSs. As to the kind of experiment: Apoptosis, mitROS and DNA-DSBs in SKOV3-MCTSs. The class given is cell-based, human. How it is done:
To obtain multiple spheroids, 5.0×10^4/mL SKOV3 cells were seeded in nonadherent conditions on poly-HEMA coated wells for 4 days. After drug treatment, viable cells were evaluated using PrestoBlue cell viability reagent (Thermo Fisher Scientific, Frederick, MD, USA) or alternatively trypsinized to a single cell suspension for further analysis.
2.0×10^5/mL A2780 and A2780cis cells were seeded in 6-well plates in complete medium and treated with complex 6 (0.15 μM and 0.5 μM). Results were detected by flow cytometry on a BD FACSCanto II flow cytometer. Data were analyzed using BD FACSDiva version 8.0.1 software (BD Biosciences) unless otherwise indicated. To evaluate apoptosis, tumor cells were treated for 48 hours and then stained for 15 minutes with FITC annexin-V (Thermo Fisher Scientific) and 7AAD (BD Pharmingen). […] For B-cell lymphoma/leukemia-2 (Bcl-2) and Bcl-2 associated x protein (Bax) evaluation, cells were fixed and permeabilized using FIX & PERM cell fixation and cell permeabilization kit (Life Technologies). For ROS generation, cells were stained with 5 μM MitoSOX red mitochondrial superoxide indicator (ThermoFisher Scientific) in a working solution for 30 minutes at 37° C. Cell cycle analysis was performed after 24 hours treatment with complex 6. Cells were harvested, fixed in cold 70% ethanol for 15 minutes, and stained with propidium iodide (PI) solution ([…] PI, 0.1% NP-40, 100 µg/mL PureLink RNase A, 0.1% sodium citrate) for 1 hour. The distribution of cells in different cell cycle phases was quantified using ModFit LT 4.0 software (Verity Software House, Topsham, ME, USA).
Whole-cell lysates were prepared using cold RIPA buffer [150 mM NaCl, 50 mM Tris-HCl (pH 8), 0.1% SDS, 1% Igepal, and 0.5% desoxycholate sodium] containing a protease inhibitor cocktail (Roche Diagnostics S.p.a., Milan, Italy), phosphatase inhibitors 1 mM Na3VO4 and 1 mM NaF (Sigma-Aldrich). Protein concentrations were determined using the BioRad protein assay (Bio-Rad Laboratories, Inc., CA, USA). Equal amounts of proteins were mixed with Laemmli buffer, separated in 4-20% SDS-PAGE (Criterion Precast Gel, BioRad), and blotted onto a nitrocellulose membrane (Amersham, GE Healthcare). Membrane strips were blocked with EveryBilot blocking buffer (Bio-Rad) and incubated at 4° C. overnight with primary antibodies probed with the appropriate antibodies (Table 2) and developed using Immobilon Western chemioluminescent HRP substrate. Images were acquired using a ChemiDoc XRS system (Bio-Rad).

Data set [3] deals with SKOV3 cells. The data set can be described thus: In vitro wound healing assay (cell migration). The class given is cell-based, human. How it is done: (§1) Cell migration was assessed using the in vitro wound healing assay. Briefly, cells were grown to confluence and then treated with complex 6. After 24 hours of treatment, the medium was removed and cells were washed then scraped with a pipet tip to create a “wound” in the monolayer and washed again. Fresh medium containing 2% FCS was added. Wounds were photographed at times 0, 24, and 48 hours using an inverted microscope (EclipseTS/100, Nikon, Instruments Europe BV Amsterdam, The Netherlands) at magnification 4. Migration was assessed by measuring the cell-free area (in pixels) with ImageJ-NIH (National Institutes of Health) tool software. The cytoskeleton organization was evaluated by culturing SKOV3 cells onto glass coverslips and performing immunofluorescence staining for α-tubulin and F-actin. SKOV3 cells were treated for 24 hours with complex 6, fixed in 4% paraformaldehyde, permeabilized with 0.5% Triton X-100, and incubated overnight with primary antibody (Table 1) at 4° C. Primary antibody was detected using the appropriate secondary antibody together with phallotoxins (Molecular Probes) and TO-PRO-3 (Thermo Fisher Scientific). Images were acquired using an SP8 confocal microscope (Leica).

Data set [4] concerns SKOV3 cells. The data set can be described thus: Cytoskeleton organization, immunofluorescence confocal microscopy. The class given is cell-based, human. To be noted: 24 hours treatment. How it is done: as §1
Data set [5] relates to tumor xenografts derived from SKOV3 cells. The data set can be described thus: SKOV3 xenograft tumor growth in athymic nude mice. The class given is in vivo. To be noted: two injections/week. How it is done: (§2) Animal experimentation was reviewed and approved by Centro di Riferimento Oncologico di Aviano (CRO) Institutional Organism for Animal Wellbeing (OPBA) and approved by the Italian Ministry of Health (No. 671/2015/PR). All animal experiments were conducted in adherence to the international and institutional committees' ethical guidelines. Ten 4-week-old female athymic nude NU(NCr)-Foxn1^nu mice were purchased from Charles Rivers (Lecco, Italy). SKOV3 (10×10^6 cells/animal) were suspended in BD Matrigel basement membrane matrix (BD Biosciences) (diluted 1:3 in PBS) and inoculated into the animals' right flank. When tumors were palpable, animals were divided into two groups of five mice each, and treated with intratumoral injection of complex 6 (2 mg/kg) or vehicle (10% DMSO, 20% Cremophor Sigma-Aldrich, 70% PBS) two times a week. Body weight and tumors were examined regularly. Tumor size was measured using a digital caliper, and volumes were calculated according to the formula (width^2×length×3.14)/6.

Data set [6] in a line: Body weight and physical inspection of xenografted mice. The class given is in vivo. To be noted: 2 mg/kg intratumoral, two injections/week. How it is done: as §2

The structures appear in SMILES notation. “Also recorded” adds a separate entry of the source.

Consider 1 compound from patent publication US20250057959A1, “PHOSPHANE GOLD(I)-N-HETEROCYCLIC CARBENE COMPLEXES FOR TREATING CANCER” (KING FAHD UNIVERSITY OF PETROLEUM AND MINERALS, priority 2023, published 2025).

Take `CC(C)c1cccc(C(C)C)c1-n1ccn(-c2c(C(C)C)cccc2C(C)C)[c]1=[Au+][PH](C1CCCCC1)(C1CCCCC1)C1CCCCC1.F[P-](F)(F)(F)(F)F` [Complex 6, [Au(IPr)(C18H33P)] PF6]: the IC50 in the data set on A2780cis (72 hours treatment, MTT) was 0.12 ± 0.01 µM. Further, the “Fold resistance (A2780cis/A2780)” value in the data set on A2780cis was determined as 0.86. Besides, the “Fold resistance (A2780cis/A2780)” value in the data set on A2780cis (listed as complex 6) stood at 0.86. In addition, the “SKOV3-MCTS volume decrease with respect to control” value in the data set on SKOV3-MCTSs [1] (3 days) was “about 60%”. In addition, the “SKOV3-MCTS volume decrease with respect to control” value in the data set on SKOV3-MCTSs [1] (7 days) was “about 75%”. Further, the “Effect on SKOV3-MCTSs at 1 μM” value with SKOV3-MCTSs [1] (1 μM) was “almost entirely diminished the SKOV3-MCTSs; also recorded: completely destroyed spheroids; also recorded: completely destroyed SKOV3-MCTSs”. Moreover, the “mitROS generation in SKOV3-MCTSs” value with SKOV3-MCTSs [2] (24 hours) is listed as “increased mitROS generation”. Moreover, the “Caspase-3,7 activation in SKOV3-MCTSs” value in the data set with SKOV3-MCTSs [2] (FLICA) was “caused the activation of caspase-3,7”. Besides, the “Annexin-V+ cells in SKOV3-MCTSs” value in the data set with SKOV3-MCTSs [2] (annexin-V-FITC/7AAD, flow cytometry) is given as “caused an increase of annexin-V+ cells”. Moreover, the “DNA-DSBs (γH2AX) in SKOV3-MCTSs” value in the data set with SKOV3-MCTSs [2] (western blot) is reported as “induced DNA-DSBs”. Further, the SKOV3 migration entry with SKOV3 cells [3] (24 hours treatment) is reported as “decreased the SKOV3 migration”. Also, the “Remaining uncovered area (wound)” value in the data set on SKOV3 cells [3] (48 hours after scratch, highest concentration, control about 5%) is reported as roughly 70%. Moreover, in the data set with SKOV3 cells [4], the F-actin cytoskeleton organization result was “irregular disposition and organization of the F-actin cytoskeleton”; the α-tubulin distribution entry is given as “did not modify α-tubulin distribution”. In data set [5] (2 mg/kg intratumoral), the “Reduction of tumor volume with respect to vehicle-treated mice” value was “more than 80%” and the Tumor mass weight result was “reduced”. For the same compound, the Mean tumor volume in data set [5] (day 35, 2 mg/kg intratumoral, control 869.5±61.9) is 155.8±84.5 mm^3. In data set [6], the “Physical inspection and body weight” value was “normal to physical inspection with a comparable weight with respect to untreated mice”.
